According to publication PMC9227994, “Evaluation of the Intestinal Permeability of Rosmarinic Acid from Thunbergia laurifolia Leaf Water Extract in a Caco-2 Cell Model” (Molecules, 2022):
“Also recorded” adds a separate entry of the source. Where two headings read alike, the source gives them in different places.

Assays:
Caco-2 cells [1] = tested on: Caco-2 cells; parameters: method as in PMID 15784988; conditions: cited from earlier work
Caco-2 cells [2] = experiment: Cytotoxicity test, MTT assay; format: cell-based, human; conditions: concentrations below 500 µg/mL, 24 h
Method: (§1) Cell viability of TL extracts and RA on Caco-2 cells was determined using MTT following modified assay. Caco-2 cells were seeded in 96-well plates at a density of 2 × 10^4 cells/well and cultured at 37 °C and 5% CO2 for 24 h. TL extracts and RA were dissolved in 50% DMSO and diluted with complete DMEM medium containing 0.1% DMSO in the culture medium. The tested compounds were diluted with medium at a concentration range of 1–1000 µg/mL for 24 h exposure experiment. After removal of the medium, the cells were washed with PBS and incubated with 50 µL of 0.5% MTT solution for 2 h at 37 °C and 5% CO2. A total of 50 μL of DMSO was put into each well to dissolve the formazan crystals. The absorbance was detected using a microplate reader at 590 nm. The percentage of cell viability was calculated according to the following Equation (1):(1) % Cell viability=A (sample)−A (blank)/A (control)−A (blank)×100 where A (sample) is absorbance value of sample; A (blank) is absorbance value of blank, and A (negative control) is absorbance value of control (cells). The experiment was performed in three replicates, and the concentration with a viability of more than 90% was chosen for evaluation in monolayer transport experiments as nontoxic to cells.

[3] = Cytotoxicity test, MTT assay; format: cell-based, human; conditions: human, Caco-2 cells, 1000 µg/mL, read-out: cell viability
Method: as §1

[4] = cited from earlier work
[5] = parameters: method as in doi:10.1039/C6RA28237G; conditions: rats, cited from earlier work
[6] = Stability of RA in HBSS (pH 7.4) at 37 °C for 2 h; format: physicochemical; conditions: HBSS pH 7.4, 37 °C, TL extract 250 µg/mL equivalent to pure RA 3.267 µg/mL
Method: The stability of RA in the TL extract of 250 µg/mL, which was equivalent to pure RA of 3.267 µg/mL in HBSS solution was determined. The TL extracts and RA were dissolved in HBSS solution (pH 7.4) and incubated at 37 °C for 2 h according to the same conditions as in the transport experiment. The contents of the RA as in TL extract and pure compound were measured for stability tests using HPLC. Their RA remains before and after incubation were calculated and expressed as a percentage of RA.

[7] = Transepithelial transport (permeability) across Caco-2 cell monolayers, HPLC-PDA, with or without β-glucuronidase/sulfatase deconjugation; format: in vitro ADME, human; conditions: human, after β-glucuronidase/sulfatase
Method: (§2) Caco-2 cells (ATCC no. HTB-37) were obtained from the American Type Culture Collection (Rockville, MD, USA) and cultured in DMEM containing […] sodium pyruvate, 20% fetal bovine serum, and 10,000 U/mL penicillin and 10,000 ug/mL streptomycin. Cell culture was maintained at 37 °C in a humidified atmosphere of 5% CO2. On achieving 80–90% confluence, Caco-2 cells were harvested using 0.25% trypsin–EDTA solution and mixed with complete DMEM medium. All cells were used for transport experiments between passages 30 and 40. The integrity of the Caco-2 cell monolayer in the transwell plates was evaluated by measuring transepithelial electrical resistance (TEER) across the monolayers using Millicell-ERS VoltOhm Meter (Millipore, Temecula, CA, USA). […] A (cm^2) is the area of the insert, 1.12 cm^2. […] The culture medium in inserts and plates was changed every 2–3 days for both A and B sides. All cells were used for transport experiments on days 19–21 postseeding. Before starting the transport experiment, the inserts were washed twice and equilibrated with transport buffer (HBSS containing […] HEPES, pH 7.4) for 30 min. Sample solutions of TL extract and RA were prepared and diluted in HBSS to the desired final concentrations. For the transport study of TL extract and RA across Caco-2 cell, sample solutions were added on donor chamber, 400 µL on A side or 1200 µL on B side. The equal volumes of transport buffer were replaced in the receiving chambers. The RA transport in samples was assessed either in A-B or B-A direction across Caco-2 cell monolayers. The plates were incubated at 37 °C for 120 min with gentle shaking at 100 rpm. The solutions of 200 µL on A side and 600 µL on B side were collected at the selected times of 30, 60, 90, and 120 min and immediately replaced with an equal volume of transport buffer to maintain the total volume in receiving chamber. Samples were stored at −80°C until analysis. The amount of transported RA in samples and reference compound was calculated using HPLC system according to the standard curve. β-glucuronidase/sulfatase (Type H-2 from Helix pomatia, 85 units/L of glucuronidase, and 7.5 units/L of sulfatase, Sigma-Aldrich Co., St. Louis, MO, USA) was added to collected samples, which were obtained from B-A solutions at 30, 60, 90, and 120 min, in a ratio of 1:20 and incubated at 37 °C for 4 h to release the parent compounds. These samples from both sides were then injected directly and analyzed for RA by HPLC. The relationship of Q (cumulative permeated amount; μg) versus time, was calculated with the following Equation (3):(3) Q=CnV+∑i=1n−1CiS where Cn is concentration of RA determined at nth sampling interval; V is volume of individual side, ∑i=1n−1Ci is sum of concentration of RA determined at sampling intervals 1 through n − 1, and S is volume of sampling aliquot The Papp (unit: cm/s) was determined and calculated from the amount of compound permeated per time by the following Equation (4):(4) Papp=(dQ/dt/C0×A) where dQ/dt is the steady-state flux of test compound across the cell monolayer in the receiver chamber (µg/min); C0 is the initial concentration in the donor (A or B side) chamber (µg/mL), and A is the surface area of the cell monolayer (cm^2). The membrane area (cm^2) of the insert is 1.12 cm^2. The ER was determined by calculating the ratio of Papp (B-A) versus Papp (A-B) as the following Equation (5):(5) ER=Papp (B-A)/Papp (A-B) where Papp (B-A) is the apparent permeability coefficient value in B-A direction, and Papp (A-B) is the permeability coefficient value in A-B direction. Basolateral recovery (%) was calculated as the amount of test compound transported through the Caco-2 cell monolayer to the B side and remaining on the A side at the end of the experiment divided by the initial amount on the A side.

Caco-2 cell monolayers = experiment: as above; format: in vitro ADME, human; conditions: for Papp (A-B) relative to B-A direction: after deconjugation; for ER (after Deconjugation): Papp (B-A)/Papp (A-B)
Method: as §2

[8] = pure RA 3.267 µg/mL, after β-glucuronidase/sulfatase, listed as RA in pure RA

O=C(/C=C/c1ccc(O)c(O)c1)O[C@H](Cc1ccc(O)c(O)c1)C(=O)O [RA, Rosmarinic acid]
RA absorbed in Caco-2 cells (Caco-2 cells [1]): 0.03–0.06%
Cytotoxicity to Caco-2 cells (Caco-2 cells [2]): nontoxic
viability at 24 h, 1000 µg/mL [3]: 85%
logarithm of octanol–water partition coefficient (logP) [4]: 1.626
partition coefficient (log Kow) [4]: 1.82
oral absolute BA ([5]; single oral dose 12.5 mg/kg): 1.69%
oral absolute BA ([5]; single oral dose 25 mg/kg): 1.28%
oral absolute BA ([5]; single oral dose 50 mg/kg): 0.91%
RA stability in HBSS [6]: 91%
Papp A→B at 120 min, 3.267 µg/mL ([7]; Caco-2, pH 7.4, pure RA 3.267 µg/mL, read-out: Papp A-B Direction (after Deconjugation)): 41.2 ± 2.29 ×10⁻⁶ cm/s
Papp B→A at 120 min, 3.267 µg/mL ([7]; Caco-2, pH 7.4, pure RA 3.267 µg/mL, read-out: Papp B-A Direction (after Deconjugation)): 20.4 ± 5.16 ×10⁻⁶ cm/s
Papp A→B at 120 min, 6.808 µg/mL ([7]; Caco-2, pH 7.4, pure RA 6.808 µg/mL, read-out: Papp A-B Direction (after Deconjugation)): 22.9 ± 0.97 ×10⁻⁶ cm/s
Papp B→A at 120 min, 6.808 µg/mL ([7]; Caco-2, pH 7.4, pure RA 6.808 µg/mL, read-out: Papp B-A Direction (after Deconjugation)): 6.2 ± 0.2 ×10⁻⁶ cm/s
efflux ratio (ER), overall (Caco-2 cell monolayers; all concentrations, below 2 taken as no active efflux): less than 2
Papp (A-B) relative to B-A direction (Caco-2 cell monolayers; pure RA 3.267 µg/mL): 2.02 fold
ER (after Deconjugation) (Caco-2 cell monolayers; pure RA 3.267 µg/mL): 0.5
Papp A-B Direction (after Deconjugation) (Caco-2 cell monolayers; [8]): 41.2 ± 2.3 × 10^−6 cm/s
Papp B-A Direction (after Deconjugation) (Caco-2 cell monolayers; [8]): 20.4 ± 5.2 × 10^−6 cm/s
Papp (A-B) relative to B-A direction (Caco-2 cell monolayers; pure RA 6.808 µg/mL): 3.67 fold
ER (after Deconjugation) (Caco-2 cell monolayers; pure RA 6.808 µg/mL): 0.3
Papp A-B Direction (after Deconjugation) (Caco-2 cell monolayers; pure RA 6.808 µg/mL, after β-glucuronidase/sulfatase, listed as RA in pure RA): 22.9 ± 1.0 × 10^−6 cm/s
Papp values before deconjugation, A-B and B-A directions (Caco-2 cell monolayers; pure RA, both concentrations, both directions): could not be detected; also recorded: not detectable
